Test results as given in ChEMBL document CHEMBL3885881, “DrugMatrix”.

Species: Rattus norvegicus
Test: DrugMatrix - Regimen: Daily Repeat
Assay type: toxicity, organism-based, Sprague-Dawley
Design: regimen Daily Repeat, gender Male, age 6-8 weeks
Conditions: in vivo, po, route oral GAVAGE, vehicle 100 % WATER; for ABSOLUTE BASOPHIL / ABSOLUTE EOSINOPHIL / ABSOLUTE LYMPHOCYTE / ABSOLUTE MONOCYTE / ABSOLUTE SEGMENTED NEUTROPHIL / BASOPHIL / EOSINOPHIL / ERYTHROCYTE COUNT / HEMATOCRIT / HEMOGLOBIN / LEUKOCYTE COUNT / LYMPHOCYTE / MEAN CORPUSCULAR HEMOGLOBIN / MEAN CORPUSCULAR HEMOGLOBIN CONCENTRATION / MEAN CORPUSCULAR VOLUME / MONOCYTE / NEUTROPHIL / NUCLEATED RED BLOOD CELLS / PLATELET COUNT: tissue Blood; for ALANINE AMINOTRANSFERASE / ALBUMIN / ALKALINE PHOSPHATASE / ASPARTATE AMINOTRANSFERASE / BLOOD UREA NITROGEN / CARBON DIOXIDE / CHLORIDE / CHOLESTEROL / CREATINE PHOSPHOKINASE / CREATININE / GLUCOSE / LACTATE DEHYDROGENASE / LIPASE / PHOSPHORUS / SODIUM / TOTAL BILIRUBIN / TOTAL PROTEIN / URIC ACID: tissue Plasma
[1] = 100 mg/kg, 120 h, dose level Low, time 5 day
[2] = 500 mg/kg, 72 h, dose level High, time 3 day
[3] = 500 mg/kg, 120 h, dose level High, time 5 day

CCN(CC)C(=S)SSC(=S)N(CC)CC
ABSOLUTE BASOPHIL [1]: 0 CELLS/uL
ABSOLUTE EOSINOPHIL [1]: 0 CELLS/uL
ABSOLUTE LYMPHOCYTE [1]: 13796 CELLS/uL
ABSOLUTE MONOCYTE [1]: 155.67 CELLS/uL
ABSOLUTE SEGMENTED NEUTROPHIL [1]: 1615 CELLS/uL
BASOPHIL [1]: 0%
EOSINOPHIL [1]: 0%
ERYTHROCYTE COUNT [1]: 5.47 x10E6/uL
HEMATOCRIT [1]: 33.87%
HEMOGLOBIN [1]: 13.53 G/DL
LEUKOCYTE COUNT [1]: 15.57 x10E3/uL
LYMPHOCYTE [1]: 89%
MEAN CORPUSCULAR HEMOGLOBIN [1]: 24.8 pg
MEAN CORPUSCULAR HEMOGLOBIN CONCENTRATION [1]: 39.97 G/DL
MEAN CORPUSCULAR VOLUME [1]: 62 fL
MONOCYTE [1]: 1%
NEUTROPHIL [1]: 10%
NUCLEATED RED BLOOD CELLS [1]: 0 /100WBC
PLATELET COUNT [1]: 1356.33 x10E3/uL
ALANINE AMINOTRANSFERASE [1]: 42.67 u/L
ALBUMIN [1]: 4.1 G/DL
ALKALINE PHOSPHATASE [1]: 265.33 u/L
ASPARTATE AMINOTRANSFERASE [1]: 70 u/L
BLOOD UREA NITROGEN [1]: 15.33 mg/dL
CARBON DIOXIDE [1]: 31.67 mmol/L
CHLORIDE [1]: 102.67 MEQ/L
CHOLESTEROL [1]: 83.67 mg/dL
CREATINE PHOSPHOKINASE [1]: 216.33 u/L
CREATININE [1]: 0.15 mg/dL
GLUCOSE [1]: 123.67 mg/dL
LACTATE DEHYDROGENASE [1]: 231 u/L
LIPASE [1]: 11.33 u/L
PHOSPHORUS [1]: 11.73 mg/dL
SODIUM [1]: 145.07 MEQ/L
TOTAL BILIRUBIN [1]: 0.2 mg/dL
TOTAL PROTEIN [1]: 6 G/DL
URIC ACID [1]: 1.37 mg/dL
ABSOLUTE BASOPHIL [2]: 0 CELLS/uL
ABSOLUTE EOSINOPHIL [2]: 32 CELLS/uL
ABSOLUTE LYMPHOCYTE [2]: 16158.67 CELLS/uL
ABSOLUTE MONOCYTE [2]: 362.67 CELLS/uL
ABSOLUTE SEGMENTED NEUTROPHIL [2]: 2246.67 CELLS/uL
BASOPHIL [2]: 0%
EOSINOPHIL [2]: 0.33%
ERYTHROCYTE COUNT [2]: 5.54 x10E6/uL
HEMATOCRIT [2]: 34.57%
HEMOGLOBIN [2]: 13.7 G/DL
LEUKOCYTE COUNT [2]: 18.8 x10E3/uL
LYMPHOCYTE [2]: 85%
MEAN CORPUSCULAR HEMOGLOBIN [2]: 24.73 pg
MEAN CORPUSCULAR HEMOGLOBIN CONCENTRATION [2]: 39.63 G/DL
MEAN CORPUSCULAR VOLUME [2]: 62.43 fL
MONOCYTE [2]: 2.33%
NEUTROPHIL [2]: 12.33%
NUCLEATED RED BLOOD CELLS [2]: 0 /100WBC
PLATELET COUNT [2]: 1410.67 x10E3/uL
ALANINE AMINOTRANSFERASE [2]: 78.33 u/L
ALBUMIN [2]: 3.87 G/DL
ALKALINE PHOSPHATASE [2]: 211.67 u/L
ASPARTATE AMINOTRANSFERASE [2]: 279.33 u/L
BLOOD UREA NITROGEN [2]: 11.33 mg/dL
CARBON DIOXIDE [2]: 30.33 mmol/L
CHLORIDE [2]: 102.33 MEQ/L
CHOLESTEROL [2]: 124 mg/dL
CREATINE PHOSPHOKINASE [2]: 747.67 u/L
CREATININE [2]: 0.15 mg/dL
GLUCOSE [2]: 121.33 mg/dL
LACTATE DEHYDROGENASE [2]: 433.33 u/L
LIPASE [2]: 11.33 u/L
PHOSPHORUS [2]: 10.77 mg/dL
SODIUM [2]: 143.53 MEQ/L
TOTAL BILIRUBIN [2]: 0.13 mg/dL
TOTAL PROTEIN [2]: 5.93 G/DL
URIC ACID [2]: 1.53 mg/dL
ABSOLUTE BASOPHIL [3]: 0 CELLS/uL
ABSOLUTE EOSINOPHIL [3]: 134 CELLS/uL
ABSOLUTE LYMPHOCYTE [3]: 14987.33 CELLS/uL
ABSOLUTE MONOCYTE [3]: 0 CELLS/uL
ABSOLUTE SEGMENTED NEUTROPHIL [3]: 1378.67 CELLS/uL
BASOPHIL [3]: 0%
EOSINOPHIL [3]: 0.67%
ERYTHROCYTE COUNT [3]: 4.95 x10E6/uL
HEMATOCRIT [3]: 30.57%
HEMOGLOBIN [3]: 12.3 G/DL
LEUKOCYTE COUNT [3]: 16.5 x10E3/uL
LYMPHOCYTE [3]: 90.33%
MEAN CORPUSCULAR HEMOGLOBIN [3]: 24.83 pg
MEAN CORPUSCULAR HEMOGLOBIN CONCENTRATION [3]: 40.2 G/DL
MEAN CORPUSCULAR VOLUME [3]: 61.67 fL
MONOCYTE [3]: 0%
NEUTROPHIL [3]: 9%
NUCLEATED RED BLOOD CELLS [3]: 0 /100WBC
PLATELET COUNT [3]: 1031.33 x10E3/uL
ALANINE AMINOTRANSFERASE [3]: 55 u/L
ALBUMIN [3]: 3.83 G/DL
ALKALINE PHOSPHATASE [3]: 254 u/L
ASPARTATE AMINOTRANSFERASE [3]: 134.33 u/L
BLOOD UREA NITROGEN [3]: 16.33 mg/dL
CARBON DIOXIDE [3]: 27 mmol/L
CHLORIDE [3]: 102.67 MEQ/L
CHOLESTEROL [3]: 109 mg/dL
CREATINE PHOSPHOKINASE [3]: 292.67 u/L
CREATININE [3]: 0.16 mg/dL
GLUCOSE [3]: 155.33 mg/dL
LACTATE DEHYDROGENASE [3]: 217.33 u/L
LIPASE [3]: 11.33 u/L
PHOSPHORUS [3]: 12 mg/dL
SODIUM [3]: 141.9 MEQ/L
TOTAL BILIRUBIN [3]: 0.17 mg/dL
TOTAL PROTEIN [3]: 6 G/DL
URIC ACID [3]: 1.6 mg/dL
